Here are results for one compound from paper PMC3578762, “Mutational Analysis of the High-Affinity Zinc Binding Site Validates a Refined Human Dopamine Transporter Homology Model” (PLoS Computational Biology, 2013).

Broadly, the IC50 is the concentration that gives 50% inhibition.

“And” between values parts separate entries of the source, which are not always exact repeats. Equal values may be shown once. Read-outs that look alike come from different tables or passages of the source.

One test has as its target T1, DAT (wild-type) (Homo sapiens, UniProt Q01959).
T1 construct: expressed in transfected cells; host or cells: HEK293 (transient, calcium phosphate)
As to the kind of experiment: Zinc inhibition of [3H]MPP+ uptake in HEK293 cells transiently expressing wild-type DAT. Particulars: for IC50: [3H]MPP+ uptake inhibition, HEK293 cells, bi-phasic fit, mean ± S.E. Type of test: cell-based. The procedure:
(§1) HEK293 cells were cultured in Dulbecco's modified Eagle's medium (DMEM) with high glucose (4.5 g/liter) and L-glutamine (584 mg/liter), supplemented with 10% fetal calf serum (FCS), 100 units/ml penicillin and 100 µg/ml streptomycin. The cells were maintained at 37°C in a humidified atmosphere of 5% CO2/95% air on standard plastic culture ware. The cells were transiently transfected with 2–10 µg of plasmid DNA as required, using the calcium phosphate precipitation method.
(§2) Cells were seeded at 0.5×10^5 cells/ml into poly-D-lysine coated 48 well plates twenty-four hours after calcium phosphate transfection with either wild-type or mutant DAT. Uptakes were performed as described previously. In brief, the cell medium was aspirated and the cells were washed once with Krebs-HEPES buffer at room temperature. The washed cells were pre-incubated with Krebs-HEPES buffer in the presence of 0–10 mM ZnCl2 for 5 min at room temperature. In the first step of the assay, this buffer was replaced with Krebs-Hepes buffer containing the appropriate ZnCl2 concentration and 0.02 µM [^3H]MPP^+. After three minutes substrate uptake was stopped by exchange of the substrate containing buffer with ice-cold Krebs-Hepes buffer. The cells were lysed in 1% SDS and transferred to scintillation vials. Scintillation cocktail was added and the vials were assayed for [^3H] content by liquid scintillation counting. Non-specific uptake was determined in the presence of 10 µM mazindol.
(§3) Uptake data are given by mean values ± S.E, obtained from n = 6–8 experiments. Total uptake data were corrected for non-specific uptake and expressed as a percentage of 0 mM ZnCl2 for each experiment. IC50 values were calculated for each mutant by performing non-linear regression analysis using PRISM version 4.0 (GraphPad Software, Inc., San Diego, CA).

The target in a further test is T2, DAT (D206C) (Homo sapiens, UniProt Q01959, D206C).
T2 construct: expressed in transfected cells; host or cells: HEK293 (transient, calcium phosphate)
T2 sequence (Q01959 whole entry D206C): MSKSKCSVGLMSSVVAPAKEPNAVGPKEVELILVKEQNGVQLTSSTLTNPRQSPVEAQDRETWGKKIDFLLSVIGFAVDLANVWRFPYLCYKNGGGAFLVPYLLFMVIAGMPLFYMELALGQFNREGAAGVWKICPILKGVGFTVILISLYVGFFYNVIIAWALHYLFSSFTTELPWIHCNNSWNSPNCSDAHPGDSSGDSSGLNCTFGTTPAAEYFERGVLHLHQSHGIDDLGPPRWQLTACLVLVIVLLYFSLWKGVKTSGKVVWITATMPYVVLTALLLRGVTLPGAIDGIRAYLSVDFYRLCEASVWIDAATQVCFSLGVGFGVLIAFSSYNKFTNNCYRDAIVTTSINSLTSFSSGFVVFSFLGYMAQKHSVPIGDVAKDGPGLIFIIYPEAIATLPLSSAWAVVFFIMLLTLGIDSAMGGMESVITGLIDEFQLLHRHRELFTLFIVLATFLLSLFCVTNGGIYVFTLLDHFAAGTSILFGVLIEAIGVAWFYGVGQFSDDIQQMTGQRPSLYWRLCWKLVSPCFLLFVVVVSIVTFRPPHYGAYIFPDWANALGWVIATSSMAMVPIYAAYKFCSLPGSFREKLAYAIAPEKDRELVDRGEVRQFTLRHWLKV
As to the kind of experiment: Zinc inhibition of [3H]MPP+ uptake in HEK293 cells transiently expressing DAT-D206C. Type of test: cell-based. Here is the method: (§4) Wild-type human DAT was generously donated by Marc G. Caron; DAT H193K was a generous gift from Ulrik Gether. Wild-type and mutant DAT were YFP tagged at their N-terminus as described in Egana et al.. Mutagenesis was performed using the Quickchange Lightning Kit by Agilent Technologies. Primers were designed using the “quickchange primer design tool” by Agilent. Primers used were: D206K: (5′-3′): […]; D206C: (5′-3′): […].
as §1
as §2, with “The cells were lysed in 1% SDS and transferred to scintillation vials. Scintillation cocktail was added and the vials were assayed for [^3H] content by liquid scintillation counting.” left out
as §3

A further test deals with T3, DAT (D206K) (Homo sapiens, UniProt Q01959, D206K).
T3 construct: expressed in transfected cells; host or cells: HEK293 (transient, calcium phosphate)
T3 sequence (Q01959 whole entry D206K): as the sequence (Q01959 whole entry D206C) above, with C206K counted along it
As to the kind of experiment: Zinc inhibition of [3H]MPP+ uptake in HEK293 cells transiently expressing DAT-D206K. Type of test: cell-based. The settings on record: for IC50: [3H]MPP+ uptake inhibition, HEK293 cells, DAT D206K, mean ± S.E. Here is the method:
as §4, §1
as §2, with “The cells were lysed in 1% SDS and transferred to scintillation vials. Scintillation cocktail was added and the vials were assayed for [^3H] content by liquid scintillation counting.” left out
as §3

For another test, the target named is T4, DAT (D206A) (Homo sapiens, UniProt Q01959, D206A).
T4 construct: expressed in transfected cells; host or cells: HEK293 (transient, calcium phosphate)
T4 sequence (Q01959 whole entry D206A): as the sequence (Q01959 whole entry D206C) above, with C206A counted along it
As to the kind of experiment: Zinc inhibition of [3H]MPP+ uptake in HEK293 cells transiently expressing DAT-D206A. Type of test: cell-based. Particulars: [3H]MPP+ uptake inhibition, mean ± S.E. Here is the method:
as §4
(§5) HEK293 cells were cultured in Dulbecco's modified Eagle's medium (DMEM) with high glucose (4.5 g/liter) and L-glutamine (584 mg/liter), supplemented with 10% fetal calf serum (FCS), 100 units/ml penicillin and 100 µg/ml streptomycin. The cells were maintained at 37°C in a humidified atmosphere of 5% CO2/95% air on standard plastic culture ware. […]
(§6) Cells were seeded at 0.5×10^5 cells/ml into poly-D-lysine coated 48 well plates twenty-four hours after calcium phosphate transfection with either wild-type or mutant DAT. […] Non-specific uptake was determined in the presence of 10 µM mazindol.
as §3

A further test has as its target T5, DAT (D206E) (Homo sapiens, UniProt Q01959, D206E).
T5 construct: expressed in transfected cells; host or cells: HEK293 (transient, calcium phosphate)
As to the kind of experiment: Zinc inhibition of [3H]MPP+ uptake in HEK293 cells transiently expressing DAT-D206E. Type of test: cell-based. The settings on record: [3H]MPP+ uptake inhibition, mean ± S.E. The procedure:
as §4, §5, §6, §3

The target in a further test is T6, DAT (H193K) (Homo sapiens, UniProt Q01959, H193K).
T6 construct: expressed in transfected cells; host or cells: HEK293 (transient, calcium phosphate)
T6 sequence (Q01959 whole entry H193K): as the sequence (Q01959 whole entry D206C) above, with H193K, C206D counted along it
As to the kind of experiment: Zinc inhibition of [3H]MPP+ uptake in HEK293 cells transiently expressing DAT-H193K. Type of test: cell-based. Particulars: [3H]MPP+ uptake inhibition, homogeneous (mono-phasic) inhibition curve, mean ± S.E., read-out: Low-affinity site: IC50 (Zn^2+). The procedure: as §4, §5, §6, §3

A further test has as its system DAT. Also on record: method as in PMID 9687495, PMID 8423763. Particulars: synaptosomes and heterologous expression systems; cited from earlier work.
Where [1] appears, read: read-out: High-affinity site: IC50 (Zn^2+).
[2] abbreviates: read-out: Low-affinity site: IC50 (Zn^2+).

T1 sequence (Q01959 whole entry): as the sequence (Q01959 whole entry D206C) above, with C206D counted along it
T5 sequence (Q01959 whole entry D206E): as the sequence (Q01959 whole entry D206C) above, with C206E counted along it

`[Zn+2]` [zinc]: the IC50 at DAT (wild-type) (setting [1]) is 1 µM and 0.91 µM; at DAT (wild-type) (setting [2]), 798 ± 84 µM; on DAT (D206C) ([3H]MPP+ uptake inhibition, HEK293 cells, DAT D206C, mean ± S.E., read-out: High-affinity site: IC50 (Zn^2+)), 6.81 ± 1.4 µM; at DAT (D206K) (setting [1]), 2.54 ± 0.8 µM; on DAT (D206K) (setting [2]) it was 682 ± 100 µM; on DAT (D206A) (setting [1]), 0.79 ± 0.1 µM. For the same compound, the IC50 is 219 ± 14 µM on DAT (D206A) (setting [2]), 1.22 ± 0.3 µM at DAT (D206E) (setting [1]), 857 ± 76 µM on DAT (D206E) (setting [2]) and 102 ± 8 µM on DAT (H193K). Moreover, on DAT (wild-type) (zinc bound to high-affinity site), the “Reduction of the transport rate of DAT upon zinc binding” value was around 50%. In addition, the “Inhibition of transport upon saturation of the high affinity site” value on DAT (D206C) (DAT-D206C, [3H]MPP+ uptake, HEK293 cells) is “almost complete inhibition of transport”. On DAT (D206C) (DAT-D206C, at 250 µM zinc), the “Occupancy of the high affinity site predicted” value is 99%. In addition, the “Reduction of inhibitory potency of zinc on the high-affinity component versus wild-type” value on DAT (D206K) (DAT-D206K versus wild-type DAT) was “approximately three fold”. Further, in the test on DAT, the “IC50 of inhibition of dopamine re-uptake” value is on record as “low µM range”.
